Patent publication EP0533925A1, “OPTICAL ISOMER OF R-FORM OF DIPHENYL ETHER DERIVATIVE AND HERBICIDE CONTAINING THE SAME AS ACTIVE INGREDIENT” (TEIJIN LIMITED, priority 1990, dated 1991)

How the values were obtained:
Experiment in all cases: Herbicidal activity, foliar application of single compounds (Test Examples 1 to 5)
Assay type in all cases: in vivo
Parameters in all cases: key: 0 means the state where the plants are as sound as before the application of the active compound; 1, 2, 3 and 4 mean varying degrees of the enfeebled state of the plants between 0 and 5; 1, 2, 3 and 4 mean varying degrees of the enfeebled state of the plants between 0 and 5; 1, 2, 3 and 4 mean varying degrees of the enfeebled state of the plants between 0 and 5; 1, 2, 3 and 4 mean varying degrees of the enfeebled state of the plants between 0 and 5; 5 is the state where the plants are withered or killed by application of the active compound
Settings in all cases: 3 weeks after application
Solanum nigrum = test system: Solanum nigrum
Experimental: (§1) In these examples, all parts means parts by weight, unless otherwise noted. The herbicidal activity was evaluated on a scale of 6 degrees. In other words, 0 means the state where the plants are as sound as before the application of the active compound, while 5 is the state where the plants are withered or killed by application of the active compound, and 1, 2, 3 and 4 mean varying degrees of the enfeebled state of the plants between 0 and 5.
(§2) The diphenyl ethers shown in Table 2 were added to 5000 parts of a mixture of acetone and water (1 : 1 by volume), and 2.6 parts of a nonionic surfactant (Sorpol 2680, tradename) was added to form a solution, so that the ether becomes the prescribed amount in each solution.
(§3) Seeds of plants were sown in the soil, cultivated for 2 to 3 weeks, after germination, then the plants were used for the tests.
(§4) The prepared solution was applied to these plants at the prescribed rate of application in total, then the plants were continuously cultivated for 3 weeks without applying the solution.
(§5) The alphabetical symbols in Tables 2 and 3 represent the following plants, respectively: a: Digitaria adscendens b: Setaria viridis c: Sorghum halepense d: Chenopodium album var. centrorubrum e: Amaranthus mangostanus f: Astragalus sinicus g: Abutilon theophrosti h: Solanum nigrum i: Xanthium strumarium j: Soybean; Glycine max k: Corn; Zea mays Table 2

Astragalus sinicus = test system: Astragalus sinicus
Experimental: as §1, §2, §3, §4, §5

Digitaria adscendens = test system: Digitaria adscendens
Experimental: as §1, §2, §3, §4, §5

[1] = test system: Chenopodium album var. centrorubrum
Experimental: as §1, §2, §3, §4, §5

Setaria viridis = test system: Setaria viridis
Experimental: as §1, §2, §3, §4, §5

Amaranthus mangostanus = test system: Amaranthus mangostanus
Experimental: as §1, §2, §3, §4, §5

Corn; Zea mays = test system: Corn; Zea mays
Experimental: as §1, §2, §3, §4, §5

Abutilon theophrosti = test system: Abutilon theophrosti
Experimental: as §1, §2, §3, §4, §5

Xanthium strumarium = test system: Xanthium strumarium
Experimental: as §1, §2, §3, §4, §5

Sorghum halepense = test system: Sorghum halepense
Experimental: as §1, §2, §3, §4, §5

Soybean; Glycine max = test system: Soybean; Glycine max
Experimental: as §1, §2, §3, §4, §5

[2] = Rate of Application 0.016 kg/ha
[3] = Rate of Application 0.031 kg/ha
[4] = Rate of Application 0.008 kg/ha

COC(=O)C(C)Oc1cc(Oc2ccc(C(F)(F)F)cc2Cl)ccc1C#N (racemic) [Racemic (1), racemic methyl α-[2-cyano-5-(2-chloro-4-trifluoromethylphenoxy)phenoxy]propionate, reference compound]
5: herbicidal activity, Plants h (Solanum nigrum; [2]) | herbicidal activity, Plants h (Solanum nigrum; [3]) | herbicidal activity, Plants f (Astragalus sinicus; [2]) | herbicidal activity, Plants f (Astragalus sinicus; [3]) | herbicidal activity, Plants d [1, 2] | herbicidal activity, Plants d [1, 3] | herbicidal activity, Plants e (Amaranthus mangostanus; [2]) | herbicidal activity, Plants e (Amaranthus mangostanus; [3]) | herbicidal activity, Plants k (Corn; Zea mays; [3]) | herbicidal activity, Plants g (Abutilon theophrosti; [2]) | herbicidal activity, Plants g (Abutilon theophrosti; [3]) | herbicidal activity, Plants i (Xanthium strumarium; [2]) | herbicidal activity, Plants i (Xanthium strumarium; [3]) | herbicidal activity, Plants c (Sorghum halepense; [3])
2: herbicidal activity, Plants b (Setaria viridis; [2]) | herbicidal activity, Plants c (Sorghum halepense; [2])
4: herbicidal activity, Plants a (Digitaria adscendens; [3]) | herbicidal activity, Plants k (Corn; Zea mays; [2]) | herbicidal activity, Plants j (Soybean; Glycine max; [2]) | herbicidal activity, Plants j (Soybean; Glycine max; [3])
3: herbicidal activity, Plants a (Digitaria adscendens; [2]) | herbicidal activity, Plants b (Setaria viridis; [3])

CCOC(=O)C(C)Oc1cc(Oc2ccc(C(F)(F)F)cc2Cl)ccc1C#N (stereo not drawn) [(2), ethyl α-[2-cyano-5-(2-chloro-4-trifluoromethylphenoxy)phenoxy]propionate]
3: herbicidal activity, Plants a (Digitaria adscendens; [4]) | herbicidal activity, Plants b (Setaria viridis; [4]) | herbicidal activity, Plants e (Amaranthus mangostanus; [4]) | herbicidal activity, Plants c (Sorghum halepense; [4])
5: herbicidal activity, Plants h (Solanum nigrum; [4]) | herbicidal activity, Plants h (Solanum nigrum; [3]) | herbicidal activity, Plants f (Astragalus sinicus; [3]) | herbicidal activity, Plants d [1, 4] | herbicidal activity, Plants d [1, 3] | herbicidal activity, Plants e (Amaranthus mangostanus; [3]) | herbicidal activity, Plants k (Corn; Zea mays; [3]) | herbicidal activity, Plants g (Abutilon theophrosti; [4]) | herbicidal activity, Plants g (Abutilon theophrosti; [3]) | herbicidal activity, Plants i (Xanthium strumarium; [4]) | herbicidal activity, Plants i (Xanthium strumarium; [3]) | herbicidal activity, Plants c (Sorghum halepense; [3]) | herbicidal activity, Plants j (Soybean; Glycine max; [3])
4: herbicidal activity, Plants f (Astragalus sinicus; [4]) | herbicidal activity, Plants a (Digitaria adscendens; [3]) | herbicidal activity, Plants b (Setaria viridis; [3]) | herbicidal activity, Plants k (Corn; Zea mays; [4]) | herbicidal activity, Plants j (Soybean; Glycine max; [4])

CCCCOC(=O)C(C)Oc1cc(Oc2ccc(C(F)(F)F)cc2Cl)ccc1C#N (stereo not drawn) [(3), n-Butyl α-[2-cyano-5-(2-chloro-4-trifluoromethylphenoxy)phenoxy]propionate]
5: herbicidal activity, Plants h (Solanum nigrum; [4]) | herbicidal activity, Plants h (Solanum nigrum; [3]) | herbicidal activity, Plants f (Astragalus sinicus; [3]) | herbicidal activity, Plants a (Digitaria adscendens; [3]) | herbicidal activity, Plants d [1, 4] | herbicidal activity, Plants d [1, 3] | herbicidal activity, Plants e (Amaranthus mangostanus; [4]) | herbicidal activity, Plants e (Amaranthus mangostanus; [3]) | herbicidal activity, Plants k (Corn; Zea mays; [3]) | herbicidal activity, Plants g (Abutilon theophrosti; [4]) | herbicidal activity, Plants g (Abutilon theophrosti; [3]) | herbicidal activity, Plants i (Xanthium strumarium; [3]) | herbicidal activity, Plants c (Sorghum halepense; [3]) | herbicidal activity, Plants j (Soybean; Glycine max; [3])
2: herbicidal activity, Plants k (Corn; Zea mays; [4]) | herbicidal activity, Plants c (Sorghum halepense; [4])
3: herbicidal activity, Plants a (Digitaria adscendens; [4]) | herbicidal activity, Plants b (Setaria viridis; [4]) | herbicidal activity, Plants j (Soybean; Glycine max; [4])
4: herbicidal activity, Plants f (Astragalus sinicus; [4]) | herbicidal activity, Plants b (Setaria viridis; [3]) | herbicidal activity, Plants i (Xanthium strumarium; [4])

CCOC(=O)C(C)Oc1cc(Oc2ncc(C(F)(F)F)cc2Cl)ccc1C#N (stereo not drawn) [(37), Ethyl α-[2-cyano-5-(3-chloro-5-trifluoromethyl-2-pyridyloxy)phenoxy]propionate]
4: herbicidal activity, Plants h (Solanum nigrum; [4]) | herbicidal activity, Plants h (Solanum nigrum; [3]) | herbicidal activity, Plants f (Astragalus sinicus; [3]) | herbicidal activity, Plants a (Digitaria adscendens; [3]) | herbicidal activity, Plants b (Setaria viridis; [3]) | herbicidal activity, Plants i (Xanthium strumarium; [4]) | herbicidal activity, Plants j (Soybean; Glycine max; [3])
2: herbicidal activity, Plants k (Corn; Zea mays; [4])
3: herbicidal activity, Plants f (Astragalus sinicus; [4]) | herbicidal activity, Plants a (Digitaria adscendens; [4]) | herbicidal activity, Plants d [1, 4] | herbicidal activity, Plants b (Setaria viridis; [4]) | herbicidal activity, Plants k (Corn; Zea mays; [3]) | herbicidal activity, Plants c (Sorghum halepense; [4]) | herbicidal activity, Plants j (Soybean; Glycine max; [4])
5: herbicidal activity, Plants d [1, 3] | herbicidal activity, Plants e (Amaranthus mangostanus; [4]) | herbicidal activity, Plants e (Amaranthus mangostanus; [3]) | herbicidal activity, Plants g (Abutilon theophrosti; [4]) | herbicidal activity, Plants g (Abutilon theophrosti; [3]) | herbicidal activity, Plants i (Xanthium strumarium; [3]) | herbicidal activity, Plants c (Sorghum halepense; [3])

COC(=O)[C@H](C)Oc1cc(Oc2ccc(C(F)(F)F)cc2Cl)ccc1C#N [S-enantiomer (1), S-enantiomer of methyl α-[2-cyano-5-(2-chloro-4-trifluoromethylphenoxy)phenoxy]propionate, reference compound]
2: herbicidal activity, Plants h (Solanum nigrum; [3])
0: herbicidal activity, Plants b (Setaria viridis; [3]) | herbicidal activity, Plants e (Amaranthus mangostanus; [3]) | herbicidal activity, Plants k (Corn; Zea mays; [3]) | herbicidal activity, Plants i (Xanthium strumarium; [3])
1: herbicidal activity, Plants f (Astragalus sinicus; [3]) | herbicidal activity, Plants a (Digitaria adscendens; [3]) | herbicidal activity, Plants d [1, 3] | herbicidal activity, Plants g (Abutilon theophrosti; [3]) | herbicidal activity, Plants c (Sorghum halepense; [3]) | herbicidal activity, Plants j (Soybean; Glycine max; [3])
